Assay results published in patent US20260217700A1, “KINESIN KIF18A INHIBITOR AND USE THEREOF” (SHANGHAI APEIRON THERAPEUTICS COMPANY LIMITED, priority 2022, published 2026).
Where two headings read alike, the source gives them in different places.

Experiments:
OVCAR3 cells = test: Cell proliferation activity test (CyQUANT Direct); format: cell-based; details: read-out: OVCAR-3 Cell Viability_IC50_nM
Description: Materials and Cells: OVCAR3 cells were purchased from Nanjing Cobioer Biosciences Co., Ltd. RPMI-1640 medium, fetal bovine serum, and the CyQUANT Direct Cell Proliferation Assay kit were purchased from Thermo Fisher Scientific, USA; 96-well cell culture plates were sourced from Corning, USA.
Cell Culture: Culture OVCAR3 cells with RPMI-1640 medium containing 10% fetal bovine serum and incubate them in a 5% CO2 incubator at 37° C. Only cells in the logarithmic growth phase can be used for the test.
Inoculate OVCAR3 cells into a 96-well cell culture plate at 90 μL per well and incubate overnight in a 5% CO2 incubator at 37° C. Dissolve the compound powder in DMSO to prepare a stock solution of 10 mM. Then perform gradient dilution for the compounds in the microplate to achieve a final concentration of 0-10 μM. Add 10 μL of cell culture medium containing compounds to each well to make the final DMSO content 0.2%. Incubate the cell plates in a 5% CO2 incubator at 37° C. for 3 days. Add 100 μL of CyQUANT detection reagent to each well, react at 37° C. for 60 min, and perform fluorescence detection using the PerkinElmer Envision.

[1] = target: T1, Human KIF18A (amino acid sequence 1-417) (Homo sapiens, UniProt Q8NI77); test: Enzymatic activity test (ADP-Glo, microtubule-stimulated ATPase); format: biochemical; details: KIF18A 2.5 nM, ATP 25 μM, microtubules 60 μg/mL, 120 min at ambient temperature, ADP-Glo chemiluminescence; read-out: Enzyme Activity
T1 construct: purchased Viva Biotech (Shanghai) Ltd
T1 sequence (Q8NI77 1-417): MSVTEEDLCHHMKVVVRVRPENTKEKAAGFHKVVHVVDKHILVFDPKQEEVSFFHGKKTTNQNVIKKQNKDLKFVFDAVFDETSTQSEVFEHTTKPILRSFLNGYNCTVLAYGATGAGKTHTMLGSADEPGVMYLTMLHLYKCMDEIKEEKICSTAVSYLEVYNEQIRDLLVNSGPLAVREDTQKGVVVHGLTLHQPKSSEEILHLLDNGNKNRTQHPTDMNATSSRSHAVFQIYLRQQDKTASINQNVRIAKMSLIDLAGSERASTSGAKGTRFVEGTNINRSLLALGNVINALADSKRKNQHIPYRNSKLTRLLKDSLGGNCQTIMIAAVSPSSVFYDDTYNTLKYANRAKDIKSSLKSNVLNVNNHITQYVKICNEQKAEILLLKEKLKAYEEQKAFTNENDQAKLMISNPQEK
Description: Materials: Human KIF18A (amino acid sequence 1-417) was purchased from Viva Biotech (Shanghai) Ltd.; the ADP-Glo™ protein kinase kit was acquired from Promega, USA; tubulin was sourced from Cytoskeleton, USA; and the 384-well assay plate and Envision multifunctional microplate reader were obtained from PerkinElmer, USA.
Enzymatic Activity Test: Dissolve the compound powder in DMSO to prepare a stock solution of 10 mM. Then perform gradient dilution for the compounds in the microplate to achieve a final concentration of […]. Then, add 2.5 μL each of tubulin, compound, ATP, and KIF18A protein to the microplate in sequence for reaction at ambient temperature for 120 min. The final concentrations in the enzyme reaction are 60 μg/mL for microtubules, 25 μM for ATP, and 2.5 nM for KIF18A protein. After the enzyme reaction, add 10 μL of ADP-GLO reaction reagent to each well and incubate at ambient temperature for 30 min. After that, add […] to each well and incubate at ambient temperature for 30 min in the dark. Finally, perform chemiluminescence detection using the PerkinElmer Envision.

HT29 cells = test: CyQuant cell proliferation activity test; format: cell-based; details: read-out: HT-29 Cell Viability_IC50_nM
Description: Materials and Cells: HT29 cells were purchased from Nanjing Cobioer Biosciences Co., Ltd.; RPMI-1640 medium, fetal bovine serum, Trypsin-EDTA (0.25%), 96-well plates, and CyQuant reagents were purchased from ThermoFisher (USA); DMSO was purchased from SIGMA (USA).
Cell Culture: Culture HT29 cells with RPMI-1640 containing 10% fetal bovine serum under the condition of 37° C. and 5% CO2. Only cells in the logarithmic growth phase can be used for the test.
Cell Proliferation Activity Test: Use the CyQuant reagent to detect the proliferation inhibitory activity of compounds on HT29 cells. The cell density was adjusted, and 100 μL per well was inoculated into a 96-well plate (HT29 at 2000 cells per well), then incubated overnight at 37° C. and 5% CO2. Add compounds of various target concentrations (initial concentration of 3000 nM, 3-fold dilution, 9 concentration gradients), and make the DMSO content 0.2%. The cell plate was incubated at 37° C. in 5% CO2 for 3 days. Incubate with CyQuant reagent for 1 h, read the plate by Envision, and calculate IC50 using XLFIT.

[2] = Homo sapiens, OVCAR-3, 72 h, OVCAR3 cells, 3 days incubation, CyQUANT fluorescence detection, DMSO 0.2%
[3] = Homo sapiens, HT-29, 72 h, HT29 at 2000 cells per well, 3 days incubation, CyQuant, initial concentration 3000 nM, DMSO 0.2%

SMILES	IC50 (OVCAR3 cells; [2]) [µM]	IC50 [1] [µM]	IC50 (HT29 cells; [3]) [µM]	IC50 (OVCAR3 cells) [µM]	IC50 (HT29 cells) [µM]
Cc1cc(NC(=O)c2c(N3CCC4(CC3)CC4)cc(NS(=O)(=O)CCO)n3ccnc23)nc(N2CCC(F)(F)CC2)n1 [Example 1, N-(2-(4,4-difluoropiperidin-1-yl)-6-methylpyrimidin-4-yl)-5-(2-hydroxyethylsulfonamido)-7-(6-azaspiro[2.5]octan-6-yl)imidazo[1,2-a]pyridine-8-carboxamide]	0.442	0.112	0.877	–	–
Cc1cc(NC(=O)c2c(N3CCC4(CC3)CC4)cc(NS(=O)(=O)CCO)c3ccccc23)nc(N2CCC(F)(F)CC2)n1 [Example 4, N-(2-(4,4-difluoropiperidin-1-yl)-6-methylpyrimidin-4-yl)-4-(2-_hydroxyethylsulfonamido)-2-(6-azaspiro[2.5]octan-6-yl)-1-naphthamide]	–	0.173	–	0.037	0.052
Cc1cc(NC(=O)c2c(N3CCC4(CC3)CC4)cc(NS(=O)(=O)CCO)c3ncccc23)nc(N2CCC(F)(F)CC2)n1 [Example 5, N-(2-(4,4-difluoropiperidin-1-yl)-6-methylpyrimidin-4-yl)-8-(2-hydroxyethanesulfonamido)-6-(6-azaspiro[2.5]octan-6-yl)quinoline-5-carboxamide]	0.036	0.134	0.065	–	–
O=C(Nc1cc2cccnc2c(N2CCC(F)(F)CC2)c1F)c1c(N2CCC3(CC2)CC3)cc(NS(=O)(=O)CCO)c2ccccc12 [Example 6, 2-{6-Azaspiro[2.5]octan-6-yl}-N-[8-(4,4-difluoropiperidin-1-yl)-7-fluoroquinolin-6-yl]-4-(2-hydroxyethanesulfonamido)naphthalene-1-carboxamide]	0.067	0.237	0.074	–	–
COc1cc(NC(=O)c2c(N3CCC4(CC3)CC4)cc(NS(=O)(=O)CCO)c3ccccc23)nc(N2CCC(F)(F)CC2)n1 [Example 7, 2-{6-Azaspiro[2.5]octan-6-yl}-N-[2-(4,4-difluoropiperidin-1-yl)-6-methoxypyrimidin-4-yl]-4-(2-hydroxyethanesulfonamido)naphthalene-1-carboxamide]	0.098	0.635	0.123	–	–
CC(CO)S(=O)(=O)Nc1cc(N2CCC3(CC2)CC3)c(C(=O)Nc2cc3sc(N)nc3c(N3CCC(F)(F)CC3)c2F)c2ccccc12 (stereo not drawn) [Example 10, N-[2-amino-4-(4,4-difluoropiperidin-1-yl)-5-fluoro-1,3-benzothiazol-6-yl]-2-{6-azaspiro[2.5]octan-6-yl}-4-(1-hydroxypropane-2-sulfonamido)naphthalene-1-carboxamide]	0.035	0.18	0.044	–	–
Cc1cc(NC(=O)c2c(N3CCC4(CC3)CC4)cc(NS(=O)(=O)C(C)(C)CO)c3c2CCC3)nc(N2CCC(F)(F)CC2)n1 [Example 11, N-(2-(4,4-difluoropiperidin-1-yl)-6-methylpyrimidin-4-yl)-7-((2-hydroxy-1,1-dimethylethyl)sulfonamide)-5-(6-azaspiro[2.5]oct-6-yl)-2,3-dihydro-1H-indene-4-carboxamide]	0.02	0.17	0.029	–	–

Now from value to compound, other results behind:

IC50 (OVCAR3 cells; [2]) [µM]	IC50 [1] [µM]	IC50 (HT29 cells; [3]) [µM]	SMILES	IC50 (OVCAR3 cells) [µM]	IC50 (HT29 cells) [µM]
0.025	0.029	0.05	Cc1cc(NC(=O)c2c(N3CCC4(CC3)CC4)cc(NS(=O)(=O)CCO)c3ccoc23)nc(N2CCC(F)(F)CC2)n1 [Example 2, N-(2-(4,4-difluoropiperidin-1-yl)-6-methylpyrimidin-4-yl)-4-(2-hydroxyethylsulfonamido)-6-(6-azaspiro[2.5]octan-6-yl)-benzofuran-7-carboxamide]	–	–
0.028	0.027	0.045	Cc1cc(NC(=O)c2c(N3CCC4(CC3)CC4)cc(NS(=O)(=O)CCO)c3c2OCC3)nc(N2CCC(F)(F)CC2)n1 [Example 3, N-(2-(4,4-difluoropiperidin-1-yl)-6-methylpyrimidin-4-yl)-4-(2-hydroxyethylsulfonamido)-6-(6-azaspiro[2.5]octan-6-yl)-2,3-dihydrobenzofuran-7-carboxamide]	–	–
0.488	0.28	> 1	Cc1cc(NC(=O)c2c(N3CCC4(CC3)CC4)cc(NS(=O)(=O)CCO)c3cccnc23)nc(N2CCC(F)(F)CC2)n1 [Example 8, N-(2-(4,4-difluoropiperidin-1-yl)-6-methylpyrimidin-4-yl)-5-((2-hydroxyethyl)sulfonamido)-7-(6-azaspiro[2.5]octan-6-yl)quinoline-8-carboxamide]	–	–
0.026	0.176	0.037	Cc1cc(NC(=O)c2c(N3CCC4(CC3)CC4)cc(NS(=O)(=O)CCO)c3c2CCC3)nc(N2CCC(F)(F)CC2)n1 [Example 9, N-(2-(4,4-difluoropiperidin-1-yl)-6-methylpyrimidin-4-yl)-7-((2-hydroxyethyl)sulfonamido)-5-(6-azaspiro[2.5]oct-6-yl)-2,3-dihydro-1H-indene-4-carboxamide]	–	–
